Experimental data published in US20230141101A1, “PDE4 INHIBITOR COMPOUND AND MEDICAL USE THEREOF” (Suzhou Longbotai Pharmaceuticals Co., Ltd., priority 2020, published 2023).

Key:
Type in all cases: biochemical
Details in all cases: 20 nM
[1] = molecular target: PDE4D2 (Homo sapiens, UniProt Q08499); experiment: PDE4 inhibitory activity assay (FAM-cAMP enzymatic reaction), PDE4D2
Method in brief: (§1)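 Each isoform is incubated with test compound for 15 min at room temperature before FAM-cAMP substrate starts a 30-min reaction.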

[2] = molecular target: T1, PDE4B1 (Homo sapiens, UniProt Q07343); experiment: PDE4 inhibitory activity assay (FAM-cAMP enzymatic reaction), PDE4B1
T1 construct: purchased BPS 60041
T1 sequence (Q07343 whole entry): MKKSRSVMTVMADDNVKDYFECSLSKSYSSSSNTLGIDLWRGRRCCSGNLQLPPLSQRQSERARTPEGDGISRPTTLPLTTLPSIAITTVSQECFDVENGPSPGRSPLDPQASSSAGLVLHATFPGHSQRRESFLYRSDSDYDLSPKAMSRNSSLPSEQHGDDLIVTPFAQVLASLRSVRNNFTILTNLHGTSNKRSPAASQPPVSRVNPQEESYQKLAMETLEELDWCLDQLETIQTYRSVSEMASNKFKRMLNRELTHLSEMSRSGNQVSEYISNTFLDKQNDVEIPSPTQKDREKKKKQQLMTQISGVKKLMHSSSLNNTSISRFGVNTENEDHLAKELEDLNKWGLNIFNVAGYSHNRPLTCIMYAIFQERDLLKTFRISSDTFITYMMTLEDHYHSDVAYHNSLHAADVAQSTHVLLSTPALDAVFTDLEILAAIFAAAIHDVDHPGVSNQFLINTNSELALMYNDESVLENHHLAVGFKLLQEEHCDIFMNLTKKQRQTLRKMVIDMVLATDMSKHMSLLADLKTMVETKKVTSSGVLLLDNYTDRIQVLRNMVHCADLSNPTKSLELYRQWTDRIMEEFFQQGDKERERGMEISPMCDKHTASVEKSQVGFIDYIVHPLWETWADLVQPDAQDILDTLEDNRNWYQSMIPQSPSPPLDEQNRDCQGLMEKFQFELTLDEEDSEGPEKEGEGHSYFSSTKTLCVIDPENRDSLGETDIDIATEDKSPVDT
Method in brief: as §1

[3] = molecular target: T2, PDE4A1A (Homo sapiens, UniProt P27815); experiment: PDE4 inhibitory activity assay (FAM-cAMP enzymatic reaction), PDE4A1A
T2 construct: purchased BPS 60040
T2 sequence (P27815 1-647 isoform P27815-4): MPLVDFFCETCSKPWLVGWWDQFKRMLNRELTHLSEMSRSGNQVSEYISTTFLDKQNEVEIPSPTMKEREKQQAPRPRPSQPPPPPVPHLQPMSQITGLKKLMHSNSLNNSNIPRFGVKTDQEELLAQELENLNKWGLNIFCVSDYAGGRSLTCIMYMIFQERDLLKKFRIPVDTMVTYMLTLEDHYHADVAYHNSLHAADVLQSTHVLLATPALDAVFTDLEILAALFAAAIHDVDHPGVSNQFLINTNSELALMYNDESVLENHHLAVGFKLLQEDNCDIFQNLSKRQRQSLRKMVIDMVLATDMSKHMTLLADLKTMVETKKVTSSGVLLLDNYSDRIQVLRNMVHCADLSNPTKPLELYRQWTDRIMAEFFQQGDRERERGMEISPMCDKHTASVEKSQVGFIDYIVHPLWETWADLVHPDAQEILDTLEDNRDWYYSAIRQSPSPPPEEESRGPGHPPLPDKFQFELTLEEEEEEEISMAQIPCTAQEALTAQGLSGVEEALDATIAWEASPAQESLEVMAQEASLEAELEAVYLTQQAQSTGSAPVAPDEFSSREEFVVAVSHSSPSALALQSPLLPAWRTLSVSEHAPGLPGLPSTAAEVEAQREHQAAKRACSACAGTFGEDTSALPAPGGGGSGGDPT
Method in brief: as §1

Chain of PDE4D2 (Q08499 303-809): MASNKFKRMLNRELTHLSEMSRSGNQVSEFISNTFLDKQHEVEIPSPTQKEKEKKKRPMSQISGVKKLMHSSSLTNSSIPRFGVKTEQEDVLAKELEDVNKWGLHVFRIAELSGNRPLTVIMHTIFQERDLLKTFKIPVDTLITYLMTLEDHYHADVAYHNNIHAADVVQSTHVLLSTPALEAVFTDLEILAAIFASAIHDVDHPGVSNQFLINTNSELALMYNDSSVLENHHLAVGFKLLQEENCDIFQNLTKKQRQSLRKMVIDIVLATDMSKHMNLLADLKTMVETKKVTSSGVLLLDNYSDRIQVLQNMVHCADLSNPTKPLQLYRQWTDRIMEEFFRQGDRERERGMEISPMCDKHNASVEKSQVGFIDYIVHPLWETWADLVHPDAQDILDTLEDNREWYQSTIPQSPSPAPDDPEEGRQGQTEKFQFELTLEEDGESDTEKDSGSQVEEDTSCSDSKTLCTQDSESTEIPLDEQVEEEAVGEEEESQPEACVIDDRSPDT

Row | Structure (SMILES) | PDE4 D2 inhibitory effect at 20 nM [1] | PDE4 B1 inhibitory effect at 20 nM [2] | PDE4 A1 inhibitory effect at 20 nM [3]
1 | CCOc1nc([C@@H](CS(C)(=O)=O)n2c(=O)n(CC(F)F)c3c(C)c(-c4ccccc4C)cnc32)ccc1OC [Ex. 59, (S)-1-(2,2-difluoroethyl)-3-(1-(6-ethoxy-5-methoxypyridin-2-yl)-2-(methylsulfonyl)ethyl)-7-methyl-6-(o-methylphenyl)-1H-imidazo[4,5-b]pyridin-2(3H)-one] | + | + | +
2 | CCOc1nc([C@@H](CS(C)(=O)=O)n2c(=O)[nH]c3c(C)c(-c4ccccc4F)cnc32)ccc1OC(F)F [Ex. 60, (S)-3-(1-(5-(difluoromethoxy)-6-ethoxypyridin-2-yl)-2-(methylsulfonyl)ethyl)-6-(2-fluorophenyl)-7-methyl-1H-imidazo[4,5-b]pyridin-2(3H)-one] | + | + | +
3 | CCOc1nc([C@@H](CS(C)(=O)=O)n2c(=O)[nH]c3c(C)c(-c4ccccc4)cnc32)ccc1OC(F)F [Ex. 61, (S)-3-(1-(5-(difluoromethoxy)-6-ethoxypyridin-2-yl)-2-(methylsulfonyl)ethyl)-7-methyl-6-phenyl-1H-imidazo[4,5-b]pyridin-2(3H)-one] | + | + | +
4 | CCOc1nc([C@H](CS(C)(=O)=O)n2c(=O)[nH]c3c(C)c(-c4ccccc4)cnc32)ccc1OC(F)F [Ex. 62, (R)-3-(1-(5-(difluoromethoxy)-6-ethoxypyridin-2-yl)-2-(methylsulfonyl)ethyl)-7-methyl-6-phenyl-1H-imidazo[4,5-b]pyridin-2(3H)-one] | − | − | −
5 | CCOc1nc([C@@H](CS(C)(=O)=O)n2c(=O)[nH]c3c(C)c(-c4ccc(F)cc4)cnc32)ccc1OC(F)F [Ex. 63, (S)-3-(1-(5-(difluoromethoxy)-6-ethoxypyridin-2-yl)-2-(methylsulfonyl)ethyl)-6-(4-fluorophenyl)-7-methyl-1H-imidazo[4,5-b]pyridin-2(3H)-one] | + | + | +
6 | CCOc1nc([C@@H](CS(C)(=O)=O)n2c(=O)[nH]c3c(C)c(-c4ccccc4C)cnc32)ccc1OC(F)F [Ex. 64, (S)-3-(1-(5-(difluoromethoxy)-6-ethoxypyridin-2-yl)-2-(methylsulfonyl)ethyl)-7-methyl-6-(o-methylphenyl)-1H-imidazo[4,5-b]pyridin-2(3H)-one] | + | + | +
7 | CCOc1nc([C@@H](CS(C)(=O)=O)n2c(=O)n(C)c3c(C)c(-c4ccccc4F)cnc32)ccc1OC(F)F [Ex. 65, (S)-3-(1-(5-(difluoromethoxy)-6-ethoxypyridin-2-yl)-2-(methylsulfonyl)ethyl)-6-(2-fluorophenyl)-1,7-dimethyl-1H-imidazo[4,5-b]pyridin-2(3H)-one] | + | + | +
8 | CCOc1nc([C@@H](CS(C)(=O)=O)n2c(=O)n(C)c3c(C)c(-c4ccccc4)cnc32)ccc1OC(F)F [Ex. 66, (S)-3-(1-(5-(difluoromethoxy)-6-ethoxypyridin-2-yl)-2-(methylsulfonyl)ethyl)-1,7-dimethyl-6-phenyl-1H-imidazo[4,5-b]pyridin-2(3H)-one] | + | + | +
